Measured values reported in US20250213614A1, “Modified RELA Protein for Inducing Interferon Expression and Engineered Immune Cells with Improved Interferon Expression” (Institut Curie, priority 2022, published 2025).

Experiments:
Format in all cases: cell-based, human
CD19+ mKate2+A549 cells = test: CAR-T tumor spheroid killing assay
Experimental: CD19+ mKate2+A549 cells were produced by lentiviral transduction using pCDH-CMV-CD19 puro and ILV-EF1a-mKate-9-X01 (Flash therapeutics) lentivectors. 1,000 cells were plated 4 days prior to co-culture in low-cluster 96 well plates (Costar #7007) and allowed to form spheroids in DMEM 10% FBS 5% PS. Total CD3+ T cells were isolated by negative selection from PBMCs (Stemcell #17951) and stimulated with Dynabeads at a ratio of 1:3 (beads:cell). Cells were cultured at 1 million per ml in X-VIVO 15 with 5% PS, 5% decomplemented human serum (Sigma) and 50 μM 2-mercaptoethanol (GIBCO #31350-010). 24 hours following TCR stimulation 100,000 cells in 100 μl were co-transduced with 100 μl of lentivector viral particles (pTRIP-SFFV-GFP or pTRIP-SFFV-GFPRELAK5R) combined with the CAR lentivirus (rLV.EFA.19BBz, Flash therapeutics) at a multiplicity of infection (MOI) of 10 (corresponding usually to less than 1 μl). Spinoculation was carried out at 1200 g for 2 hours at 25° C. Cells were expanded for 48 hours with fresh media and 300 U/ml IL-2. 3 days following transduction T cells were stained with CD19 CAR detection reagent (miltenyi 130-115-965) for 15 minutes at 4° C., washed twice and subsequently with secondary antibody (invitrogen #S21374) for 30 minutes at 4° C. Cells were fixed and acquired on a FACSVerse (BD). The next day, Dynabeads were removed by magnetic separation and 250, 500 or 1,000 CAR+ cells were added per well of A549 spheroids in quadruplicates. Plates were then placed in an IncuCyteS3 and images were acquired using a 10× objective ([…]/pixel) every 3 hours for 5 to 6 days. Images were analysed using the IncuCyte S3 software. At the end of the culture, supernatants were harvested and assayed for IFN concentrations.

[1] = system: STING, TBK1, IRF3, RELA, IRF7; test: Western blot of key signaling proteins involved in STING signaling
Experimental: 0.5 million cells were lysed for 30 minutes on ice in 50 μl RIPA buffer (50 mM Tris HCl, 150 mM NaCl, 0.1% SDS, 0.5% DOC, 1% NP-40) with Protease inhibitor (Roche #1187358001). To evaluate, phospho-proteins 50 mM NaF and 1 mM sodium orthovanadate were added to the lysis buffer. Protein lysates were cleared by centrifugation at 12,000 g for 10 to 12 minutes at 4° C. 10 μl of 6× Laemmli buffer (fisher scientific #J61337) was added to 50 μl protein lysates and samples were boiled at 95° C. for 15 minutes. Protein samples were resolved on 4%-20% Biorad precast SDS-PAGE gels (#5671125) and transferred onto PVDF membranes (BioRad #1704157). Membranes were blocked in 5% non-fat dry milk in PBS 0.1% tween or in TBS 5% BSA 0.1% Tween to detect phosphorylated proteins. Primary antibodies were used at 1:1000:phospho-STING (clone-D7C3S), STING (clone-D2P2F), serine 172 phospho-TBK1 (clone-D52C2), TBK1 (clone-D11B4), serine 396 phospho IRF3 (clone-D6O1M), IRF3 (clone-D83B9), RELA (clone-C22B4), IRF7 (clone-12G9A36), cGAS (clone-D1 D3G), Actin (clone-C4), Sendai viral proteins (Biozol #MBL-PD029). Secondary anti-rabbit or anti-mouse antibody were used at 1:10,000 (santa cruz #sc-2357, #sc-516102). ECL signal (Biorad #1705061 and #1705062) was recorded on a ChemiDoc Touch Biorad Imager. Data was analyzed and quantified with Image Lab software (Biorad). In figures, dotted lines indicate reordering of lanes from a single original membrane for visualization purpose.

[2] = system: IFNL1 and IFNB transcripts; test: RT-qPCR gene expression analysis in CD4+ T cells; details: IRF3 over-expression in CD4+ T cells, data not shown
Experimental: RNA was extracted from 0.4-1 million cells using the Nucleospin RNA II kits (Macherey-Nagel #740955.50). cDNA was synthesized using random primers (invitrogen #48190-011) from 0.1 μg RNA using Superscript III Reverse transcriptase (fisher scientific #18080044). Real-time qPCR (RT-qPCR) was carried out in 20 μl reactions using SYBR Green I Master (Roche #4887352001). Primers used were as follows: […]

“RELA K5R: RELA mutant converting five lysine residues (K122, K123, K310, K314, K315) to arginine, expressed from lentivector” was tested, and the “IFNL1 at the end of co-culture” value (CD19+ mKate2+A549 cells; 6 days co-culture, all dilutions of CART and RELA K5R cells) was “detected”, the “tumor growth with lower numbers of CAR T cells” value (CD19+ mKate2+A549 cells; FIG. 6F, left panel) was “delay of tumor growth was also observed” and the “tumor spheroid size / elimination of tumor cells” value (CD19+ mKate2+A549 cells; co-culture 5-6 days, CAR-positive cell numbers normalized, FIG. 6E, 6F) was “significantly more efficiently eliminated”. For the same molecule, the “proliferation rates as cause of improved killing capacity” value (CD19+ mKate2+A549 cells; data not shown) was “not due to increased proliferation rates” and the “endogenous RELA expression” value ([1]; overexpression in CD4+ T cells and MDDC, FIG. 2C) was “no impact”.

B1: IRF3: interferon Regulatory Factor 3, over-expressed from lentivector (protein, UniProt Q14653 1-427, looked up)
Interferon regulatory factor 3: MGTPKPRILPWLVSQLDLGQLEGVAWVNKSRTRFRIPWKHGLRQDAQQEDFGIFQAWAEATGAYVPGRDKPDLPTWKRNFRSALNRKEGLRLAEDRSKDPHDPHKIYEFVNSGVGDFSQPDTSPDTNGGGSTSDTQEDILDELLGNMVLAPLPDPGPPSLAVAPEPCPQPLRSPSLDNPTPFPNLGPSENPLKRLLVPGEEWEFEVTAFYRGRQVFQQTISCPEGLRLVGSEVGDRTLPGWPVTLPDPGMSLTDRGVMSYVRHVLSCLGGGLALWRAGQWLWAQRLGHCHTYWAVSEELLPNSGHGPDGEVPKDKEGGVFDLGPFIVDLITFTEGSGRSPRYALWFCVGESWPQDQPWTKRLVMVKVVPTCLRALVEMARVGGASSLENTVDLHISNSHPLSLTSDQYKAYLQDLVEGMDFQGPGES
B1 was tested, and the “phospho-IRF3 levels in response to cGAMP” value ([1]; IRF3 over-expression, equivalent in CD4+ T cells and MDDC, FIG. 3C) was “massive increase” and the “IFNL1 and IFNB transcripts in response to cGAMP” value [2] was “increased”.
